US20240197706A1, “METHODS OF IMPROVING THE PHARMACOKINETICS OF MIGALASTAT” (Amicus Therapeutics, Inc., priority 2022, published 2024)
Like-named read-outs stand apart in the source and are kept apart here.

Assays:
[1] = AT1001-045 study: plasma migalastat bioavailability of 150 mg migalastat HCl capsule with caffeine and sweetener beverages relative to water; assay type: in vivo, human (healthy subjects); details: 280 mL of coffee containing approximately 190 mg caffeine at the time of dosing, compared to water
[2] = as above; assay type: in vivo, human (healthy subjects); details: for AUC0-t Ratio / AUC0-∞ Ratio / Cmax Ratio: percent scale; for Cmax / AUC(0-t) / AUC(0-inf) / Tmax / half-life: both sexes, human, plasma, po, 150 mg; for Cmax: read-out: Cmax GeoMean; for AUC(0-t): read-out: AUC0-t GeoMean; for AUC(0-inf): read-out: AUC0-∞ GeoMean; for Tmax: read-out: tmax Median; for half-life: read-out: t1/2 Mean (converted)
Experimental: The example describes the AT1001-045 study, which was an open-label study of the bioavailability, safety and tolerability of migalastat in combination with caffeine and sweeteners.
The primary objective was to evaluate plasma migalastat bioavailability of the 150 mg migalastat HCl capsule in a caffeinated beverage, a sucrose beverage, a combination caffeinated and sucrose beverage, an aspartame artificial sweetener beverage, and an acesulfame potassium artificial sweetener beverage relative to water in healthy subjects.
The primary endpoints were ANOVA comparisons of interest between each test treatment and reference treatment for Cmax, AUC0-t and AUC0-∞. The comparisons of interest were point estimate ratios and lower/upper 90% confidence intervals.
This was a single-center, single dose, randomized, open-label, 6-way crossover study. Each subject received a single oral dose of migalastat HCl 150 mg for each of 6 periods.
In randomized sequence, each subject received a 150 mg migalastat HCl capsule with a caffeinated beverage, a sucrose drink, a combination caffeinated and sucrose beverage, an aspartame artificial sweetener drink, an acesulfame potassium artificial sweetener drink, or water.
All study treatments were administered in the fasted condition (overnight+4 hours post-dose).
Each single dose administration was followed by a 72-hour PK sampling period which also served as the between-treatment washout interval.
Appropriate migalastat exposure ratios (Cmax and AUC) with corresponding 90% confidence intervals will be used to address the comparisons of interest: • Caffeine (test) vs. water (reference) • Sucrose (test) vs. water (reference) • Caffeine+Sucrose (test) vs. water (reference) • Aspartame (test) vs. water (reference) • Acesulfame K (test) vs. water (reference)
• Study Population: male and female healthy subjects 18 to 45 years of age. • Sample Size: 20 subjects balanced for gender. • Dose: A single 150 mg capsule of migalastat hydrochloride, provided as GALAFOLD®.
The following test treatments were prepared: • Caffeinated beverage: 8 oz of caffeinated tea; nothing added; administered warm (40 to 50 degrees C.) and consumed within 10 minutes • Sucrose drink: 8 oz sucrose solution prepared with 26 grams sucrose, chilled before drug administration, and consumed within 10 minutes • Equivalent to sucrose content in one 8 oz serving of cane sugar-containing Coca-Cola® • Caffeinated+Sucrose drink: 8 oz caffeinated/sucrose beverage, chilled before drug administration, and consumed within 10 minutes (e.g., Jolt®) • Aspartame: 8 oz aspartame solution prepared with 125 mg aspartame, chilled before drug administration, and consumed within 10 minutes • Equivalent to aspartame content in one 8 oz can of Diet Coke® • Acesulfame K: 8 oz acesulfame K solution prepared with 30 mg acesulfame K, chilled before drug administration, and consumed within 10 minutes • Equivalent to acesulfame K content in one 8 oz can of Diet Coke® or Coca-Cola® Zero Sugar

[3] = taken with food; cited from earlier work
[4] = Acesulfame K (test) vs. water (reference)
[5] = Aspartame (test) vs. water (reference)
[6] = Caffeine (test) vs. water (reference)
[7] = Caffeine + Sucrose (test) vs. water (reference)
[8] = Sucrose (test) vs. water (reference)
[9] = single oral 150 mg migalastat HCl capsule, fasted, with Acesulfame K drink
[10] = single oral 150 mg migalastat HCl capsule, fasted, with Aspartame drink
[11] = single oral 150 mg migalastat HCl capsule, fasted, with Caffeine + Sucrose drink
[12] = single oral 150 mg migalastat HCl capsule, fasted, with Caffeine beverage
[13] = single oral 150 mg migalastat HCl capsule, fasted, with Sucrose drink
[14] = single oral 150 mg migalastat HCl capsule, fasted, with water (reference)

## OC[C@H]1NC[C@H](O)[C@@H](O)[C@H]1O [migalastat, (2R,3S,4R,5S)-2-(hydroxymethyl) piperdine-3,4,5-triol]
[1]
  mean reduction in Cmax: 60%
[2]; 280 mL of coffee containing approximately 190 mg caffeine at the time of dosing, compared to water
  mean reduction in AUC0-∞: 57%
[2]; [4]
  AUC0-t Ratio: 93.9
  AUC0-∞ Ratio: 96.1
  Cmax Ratio: 92.3
[2]; [5]
  AUC0-t Ratio: 104.9
  AUC0-∞ Ratio: 102.9
  Cmax Ratio: 103.3
[2]; [6]
  AUC0-t Ratio: 43.1
  AUC0-∞ Ratio: 45.8
  Cmax Ratio: 39.9
[2]; [7]
  AUC0-t Ratio: 46.9
  AUC0-∞ Ratio: 47.7
  Cmax Ratio: 45.9
[2]; [8]
  AUC0-t Ratio: 92.2
  AUC0-∞ Ratio: 91.8
  Cmax Ratio: 95.3
[2]; single oral 150 mg migalastat HCl capsule, fasted, healthy subjects, with water (reference)
  Cmax: 1.33 µg/mL
[2]; [9]
  AUC(0-t): 8.12 µg·h/mL
  AUC(0-inf): 8.64 µg·h/mL
  Cmax: 1.23 µg/mL
  Tmax: 4 h
  AUC0-∞ GeoMean: 8.621 µg·h/mL
  t1/2 Mean: 7.2 h
[2]; [10]
  AUC(0-t): 9.08 µg·h/mL
  AUC(0-inf): 9.08 µg·h/mL
  Cmax: 1.37 µg/mL
  half-life: 8.1 h
  Tmax: 4 h
  AUC0-∞ GeoMean: 9.043 µg·h/mL
[2]; [11]
  AUC(0-t): 4.05 µg·h/mL
  AUC(0-inf): 4.27 µg·h/mL
  Cmax: 0.611 µg/mL
  half-life: 8.8 h
  Tmax: 3 h
[2]; [12]
  AUC(0-t): 3.72 µg·h/mL
  AUC(0-inf): 4.1 µg·h/mL
  Cmax: 0.529 µg/mL
  half-life: 10.2 h
  Tmax: 3 h
[2]; [13]
  AUC(0-t): 7.96 µg·h/mL
  AUC(0-inf): 8.03 µg·h/mL
  Cmax: 1.27 µg/mL
  half-life: 7.8 h
  Tmax: 3 h
  AUC0-∞ GeoMean: 8.008 µg·h/mL
[2]; [14]
  AUC(0-t): 8.62 µg·h/mL
  AUC(0-inf): 8.61 µg·h/mL
  half-life: 7.5 h
  Tmax: 4 h
  AUC0-∞ GeoMean: 8.57 µg·h/mL
[2]; coffee or sweetened beverages in comparison to water
  rate of absorption (tmax) effect: not affected
[2]; sucrose vs water
  mean difference in AUC (decrease): 8%
[2]; with acesulfame K
  bioequivalence to water (90% CI within 80% to 125%): bioequivalent to water
[2]; with aspartame
  bioequivalence to water (90% CI within 80% to 125%): bioequivalent to water
[2]; with sucrose
  bioequivalence to water (90% CI within 80% to 125%): very close to bioequivalent
[3]
  decrease in migalastat exposure: approximately 40%
